Bounds are passed on as bounds.

In assay [1] the target is Adenosine receptors; A1 & A2b (Homo sapiens) (UniProt P30542+P29275). The assay is described as follows: Selectivity ratio of hA1 to hA2B. It counts as protein assay.
Assay [2] deals with Adenosine receptors; A2b & A3 (Homo sapiens) (UniProt P29275+P0DMS8). The assay is described as follows: Selectivity ratio of hA3 to hA2B. It counts as protein assay.
In assay [3] the target is Adenosine receptor A2a (Rattus norvegicus, UniProt P30543). The assay is described as follows: biochemical.
Description: Antagonist activity against adenosine A2A receptor in rat striatal membrane in presence of [3H]CGS-21680 radioligand.
The target in assay [4] is Adenosine receptor A2a (Homo sapiens, UniProt P29274). The assay is described as follows: biochemical.
Description: Antagonist activity against recombinant human adenosine A2A receptor expressed in HEK293 cells in presence of [125I]iodo-ZM-241385 radioligand.
The target in assay [5] is T1, Adenosine receptor A1 (Homo sapiens, UniProt P30542).
T1 sequence (P30542 whole entry): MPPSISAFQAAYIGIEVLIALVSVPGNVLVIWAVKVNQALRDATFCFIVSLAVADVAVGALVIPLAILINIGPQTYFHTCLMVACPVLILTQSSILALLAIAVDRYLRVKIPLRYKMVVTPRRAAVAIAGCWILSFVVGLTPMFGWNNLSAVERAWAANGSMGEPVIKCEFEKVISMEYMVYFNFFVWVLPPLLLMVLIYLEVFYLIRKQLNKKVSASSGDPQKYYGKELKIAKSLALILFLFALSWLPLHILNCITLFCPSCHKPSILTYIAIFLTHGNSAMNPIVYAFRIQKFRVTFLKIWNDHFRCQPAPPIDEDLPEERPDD
The assay is described as follows: biochemical.
Description: Antagonist activity against recombinant human adenosine A1 receptor expressed in HEK293 cells in presence of [125I]IABA radioligand.

For assay [6], the target named is Adenosine receptor A2a (Rattus norvegicus) (UniProt P30543). The assay is described as follows: Antagonist activity against adenosine A2A receptor in rat striatal membrane using [3H]CGS-21680. It counts as functional, cell membranes. Conditions: Striatum, concentration not given here.
Assay [7] deals with T2, Adenosine receptor A3 (Homo sapiens, UniProt P0DMS8).
T2 sequence (P0DMS8 whole entry): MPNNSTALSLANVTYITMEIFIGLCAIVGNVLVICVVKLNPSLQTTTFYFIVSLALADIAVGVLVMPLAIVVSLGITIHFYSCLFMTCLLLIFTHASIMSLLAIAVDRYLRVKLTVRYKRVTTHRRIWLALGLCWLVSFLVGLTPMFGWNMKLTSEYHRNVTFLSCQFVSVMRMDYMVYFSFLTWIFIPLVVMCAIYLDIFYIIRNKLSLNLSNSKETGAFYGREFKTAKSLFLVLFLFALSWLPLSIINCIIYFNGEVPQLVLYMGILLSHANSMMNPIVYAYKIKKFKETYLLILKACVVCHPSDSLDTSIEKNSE
The experiment in a line: biochemical.
Description: Antagonist activity against human adenosine A3 receptor expressed in HEK cells in presence of [125]IAB-MECA or [125I]IABA radioligand.

The next assay concerns the target T3, Adenosine receptor A2b (Homo sapiens, UniProt P29275).
T3 sequence (P29275 whole entry): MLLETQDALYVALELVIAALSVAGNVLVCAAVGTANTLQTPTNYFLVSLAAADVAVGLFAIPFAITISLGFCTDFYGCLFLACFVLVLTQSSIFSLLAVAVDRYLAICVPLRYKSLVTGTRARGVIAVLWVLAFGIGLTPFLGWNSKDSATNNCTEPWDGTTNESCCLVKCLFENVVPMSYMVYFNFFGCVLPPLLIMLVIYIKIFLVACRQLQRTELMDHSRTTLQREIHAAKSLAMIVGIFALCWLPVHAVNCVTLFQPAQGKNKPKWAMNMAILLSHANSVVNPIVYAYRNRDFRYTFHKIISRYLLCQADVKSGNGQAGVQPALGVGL

The target in assay [8] is T4, Adenosine receptor A1 (Rattus norvegicus, UniProt P25099).
T4 sequence (P25099 whole entry): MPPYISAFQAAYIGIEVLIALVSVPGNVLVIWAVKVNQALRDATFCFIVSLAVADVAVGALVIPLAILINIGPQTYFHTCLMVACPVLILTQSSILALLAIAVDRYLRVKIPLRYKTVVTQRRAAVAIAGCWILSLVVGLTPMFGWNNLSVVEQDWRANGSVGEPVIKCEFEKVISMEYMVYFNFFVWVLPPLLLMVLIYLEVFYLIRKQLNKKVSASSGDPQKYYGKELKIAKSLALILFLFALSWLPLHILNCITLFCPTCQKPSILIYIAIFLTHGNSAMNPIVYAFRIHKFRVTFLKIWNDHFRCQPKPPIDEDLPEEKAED
The assay is described as follows: biochemical.
Description: Antagonist activity against adenosine A1 receptor in rat brain membrane in presence of [3H]R-PIA radioligand.

Assay [9] deals with T5, Adenosine receptor A3 (Homo sapiens) (UniProt P0DMS8).
T5 sequence (whole entry): T2 sequence (P0DMS8 whole entry)
It counts as functional, cell-based. The note with it: HEK293, 10e-6 M.

Assay [10] addresses T6, Adenosine receptor A1 (Rattus norvegicus) (UniProt P25099).
T6 sequence (whole entry): T4 sequence (P25099 whole entry)
The experiment in a line: Antagonist activity against adenosine A1 receptor in rat brain membrane using [3H]R-PIA at 10e-5 M. It is filed as functional, cell membranes.

Assay [11] addresses Adenosine receptor A2a (Rattus norvegicus) (UniProt P30543). The assay is described as follows: Antagonist activity against adenosine A2A receptor in rat striatal membrane using [3H]CGS-21680 at 10e-5 M. The note with it: Striatum. It is filed as functional, cell membranes.
For assay [12], the target named is T7, Adenosine receptor A2b (Homo sapiens) (UniProt P29275).
T7 sequence (whole entry): T3 sequence (P29275 whole entry)
It is filed as functional, cell-based. The note with it: HEK293, 10e-5 M.

Assay [13] deals with T8, Adenosine receptor A3 (Rattus norvegicus, UniProt P28647).
T8 sequence (P28647 whole entry): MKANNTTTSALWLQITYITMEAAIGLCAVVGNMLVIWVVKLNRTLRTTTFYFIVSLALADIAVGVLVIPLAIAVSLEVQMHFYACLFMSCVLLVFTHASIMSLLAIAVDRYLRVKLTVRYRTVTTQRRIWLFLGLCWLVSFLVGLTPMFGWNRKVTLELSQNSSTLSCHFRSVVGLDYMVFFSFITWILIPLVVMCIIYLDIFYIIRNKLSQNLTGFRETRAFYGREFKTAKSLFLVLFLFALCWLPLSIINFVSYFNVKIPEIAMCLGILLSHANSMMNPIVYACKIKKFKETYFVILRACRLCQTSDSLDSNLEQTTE
It counts as functional.

For assay [14], the target named is T6, Adenosine receptor A1 (Rattus norvegicus). The assay is described as follows: Antagonist activity against A1 adenosine receptor in rat brain membrane using [3H]-R-PIA at 10e-5 M. It is filed as functional, cell membranes.

Chain of Adenosine receptor A2a (Rattus norvegicus) (P30543 whole entry): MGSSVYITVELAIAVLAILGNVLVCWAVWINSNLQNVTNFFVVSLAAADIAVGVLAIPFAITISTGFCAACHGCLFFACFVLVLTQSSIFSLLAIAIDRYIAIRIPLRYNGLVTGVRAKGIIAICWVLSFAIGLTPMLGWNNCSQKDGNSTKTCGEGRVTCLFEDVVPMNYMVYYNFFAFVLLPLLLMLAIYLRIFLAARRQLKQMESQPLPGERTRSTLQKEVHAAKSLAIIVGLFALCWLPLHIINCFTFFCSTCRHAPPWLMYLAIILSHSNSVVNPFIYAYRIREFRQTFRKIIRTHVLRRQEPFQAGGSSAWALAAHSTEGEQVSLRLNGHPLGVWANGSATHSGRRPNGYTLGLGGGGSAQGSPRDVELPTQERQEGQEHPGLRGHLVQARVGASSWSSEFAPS
Chain of Adenosine receptor A2a (Rattus norvegicus, UniProt P30543) (P30543 whole entry): as above
Chain of Adenosine receptor A2a (Homo sapiens, UniProt P29274) (P29274 whole entry): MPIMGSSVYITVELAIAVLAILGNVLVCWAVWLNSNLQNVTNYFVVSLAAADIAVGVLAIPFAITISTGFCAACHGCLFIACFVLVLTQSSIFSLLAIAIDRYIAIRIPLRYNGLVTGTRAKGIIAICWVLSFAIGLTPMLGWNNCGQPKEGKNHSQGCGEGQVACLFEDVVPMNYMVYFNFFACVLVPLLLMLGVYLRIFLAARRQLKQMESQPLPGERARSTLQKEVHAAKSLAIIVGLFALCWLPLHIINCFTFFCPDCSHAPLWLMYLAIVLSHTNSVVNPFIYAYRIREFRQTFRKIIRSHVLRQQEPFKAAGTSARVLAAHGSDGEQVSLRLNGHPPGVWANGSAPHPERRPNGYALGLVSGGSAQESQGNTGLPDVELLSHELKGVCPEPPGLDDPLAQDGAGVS

Turning to `CCCn1c(=O)c2nc(-c3ccc(OCC(=O)N(Cc4ccccc4)Cc4ccccc4)cc3)[nH]c2n(CCC)c1=O`, the figures for the Ratio in assay [1] and in assay [2] were 70 and 29, respectively.
For the compound `O=C(O)/C=C/c1ccc(-c2nc3c(=O)n(CC4CCCCC4)c(=O)n(CC4CCCCC4)c3[nH]2)cc1`, the Ratio turned out to be 25 in assay [1] and 4.6 in assay [2]. In addition, the Ki on Adenosine receptor A2a [3] is < 10 nM.
Regarding `CCCn1c(=O)c2[nH]c(-c3ccc(OCC(=O)Nc4ccc(C(N)=O)cc4)cc3)nc2n(CCC)c1=O`, the Ki on Adenosine receptor A2a [4] is 39 nM; at Adenosine receptor A1 [5], 161 nM.
As to `CCCn1c(=O)c2nc(-c3ccc(OCC(=O)Nc4cccc(C(C)=O)c4)cc3)[nH]c2n(CCC)c1=O`, the Ratio in assay [1] came to 48; in [2] it was 72.
Take `CCCn1c(=O)c2nc(-c3ccc(OCC(=O)Nc4ccc(C(=O)O)cc4)cc3)[nH]c2n(CCC)c1=O`: the Ratio was 10 in assay [1] and > 300 in assay [2].
In the case of `CCCn1c(=O)c2nc(-c3ccc(OCC(=O)Nc4ccc(C(C)=O)cc4)cc3)[nH]c2n(CCC)c1=O`, the results for the Ratio in assay [1] and in [2] were 110 and 170, respectively.
With `CCCn1c(=O)c2nc(-c3ccc(OCC(=O)NC(c4ccccc4)c4ccccc4)cc3)[nH]c2n(CCC)c1=O`, in assay [6], the inhibition turned out to be 20%.
`CCCn1c(=O)c2nc(-c3ccc(/C=C/C(=O)O)cc3)[nH]c2n(CCC)c1=O`: the inhibition constant Ki worked out at 30 nM on Adenosine receptor A3 [7] and 60 nM on Adenosine receptor A2b.
Regarding `CCn1c(=O)c2[nH]c(-c3ccc(OCC(=O)Nc4ccc(CC(=O)NCCN)cc4)cc3)nc2n(CC)c1=O`, the inhibition constant (Ki) was 15.2 nM at Adenosine receptor A2b, 65 nM on Adenosine receptor A1 [8] and 1370 nM at Adenosine receptor A2a [3].
With `CCn1c(=O)c2nc(-c3ccc(OCC(=O)Nc4ccc(C)cc4)cc3)[nH]c2n(CC)c1=O`, the Displacement in assay [9] was < 10%.
Turning to `CCCCn1c(=O)c2nc(-c3ccc(OCC(=O)O)cc3)[nH]c2n(CCCC)c1=O`, the Ratio in [1] was 3.1; in assay [2], 1.9.
Take `C=CCn1c(=O)c2nc(-c3ccc(OCC(=O)O)cc3)[nH]c2n(CC=C)c1=O`: the results for the Ratio in assay [1] and in assay [2] were 12 and 5.8, respectively.
As for `CCCn1c(=O)c2nc(-c3ccc(OCC(=O)Nc4ccc(Cl)cc4)cc3)[nH]c2n(CCC)c1=O`, the results for the Ratio in [1] and in [2] were 20 and 760, respectively.
`CCCn1c(=O)c2nc(-c3ccc(OCC(=O)Nc4ccccc4)cc3)[nH]c2n(CCC)c1=O`: the Ratio is 27 in assay [1] and 93 in [2].
With `CC(=O)c1ccccc1NC(=O)COc1ccc(-c2nc3c(=O)n(Cc4ccccc4)c(=O)n(Cc4ccccc4)c3[nH]2)cc1`, the Displacement in [10], in assay [11] and in assay [12] was < 10% each time.
Regarding `CCCn1c(=O)c2nc(-c3ccc(OCC(=O)Nc4ccc(C(=O)OC)cc4)cc3)[nH]c2n(CCC)c1=O`, the Ratio in assay [1] is 57; in assay [2], 92.
For `CCCn1c(=O)c2nc(-c3ccc(OCC(=O)Nc4ccccc4C(C)=O)cc3)[nH]c2n(CCC)c1=O` the same measures were 120 and 23.
At Adenosine receptor A1 [8], `CCCn1c(=O)c2[nH]c(-c3ccc(OCC(=O)Nc4ccc(F)cc4)cc3)nc2n(CCC)c1=O` registered a Ki of 272 nM.
Consider `CCCn1c(=O)c2nc(-c3ccc(OCC(=O)Nc4ccc([N+](=O)[O-])cc4)cc3)[nH]c2n(CCC)c1=O`, for which the Ratio in assay [1] was 38; in [2], 91.
For `CCCn1c(=O)c2nc(-c3ccc(OCC(=O)Nc4ccc(C(F)(F)F)cc4)cc3)[nH]c2n(CCC)c1=O`, the Ratio in assay [1] is 29; in [2] it was 100.
On to `CCCCn1c(=O)c2[nH]c(-c3ccc(OCC(=O)O)cc3)nc2n(CCCC)c1=O`, for which, on Adenosine receptor A3 [13], the affinity, expressed as Ki, was 27500 nM.
Regarding `CCCn1c(=O)c2nc(-c3ccc(OCC(=O)Nc4ccc(I)cc4)cc3)[nH]c2n(CCC)c1=O`, the Ratio in assay [1] is 140; in assay [2] it was 600.
`O=C(O)COc1ccc(-c2nc3c(=O)n(Cc4ccccc4)c(=O)n(Cc4ccccc4)c3[nH]2)cc1` had an inhibition in [6] of 25%.
Turning to `CC(=O)c1ccccc1NC(=O)/C=C/c1ccc(-c2nc3c(=O)n(Cc4ccccc4)c(=O)n(Cc4ccccc4)c3[nH]2)cc1`, the Displacement in [11] and in assay [12] was < 10% throughout.
As for `CC(=O)c1ccccc1NC(=O)/C=C/c1ccc(-c2nc3c(=O)n(CC4CCCCC4)c(=O)n(CC4CCCCC4)c3[nH]2)cc1`, the Displacement in [14], in assay [11] and in assay [12] was < 10% each time.
Consider `CCCn1c(=O)c2nc(-c3ccc(OCC(=O)Nc4ccc(Br)cc4)cc3)[nH]c2n(CCC)c1=O`, for which the Ratio was 31 in assay [1] and 980 in assay [2].
Turning to `CCCn1c(=O)c2nc(-c3ccc(OCC(=O)NN4C(=O)C(C)=C(C)C4=O)cc3)[nH]c2n(CCC)c1=O`, the values for the Ratio in assay [1] and in assay [2] were 110 and 25, respectively.
`CCCn1c(=O)c2nc(-c3ccc(OCC(=O)Nc4ccc(F)cc4)cc3)[nH]c2n(CCC)c1=O`: the Ratio in [1] is 8.1; in [2] it was 176.
Consider `CCCn1c(=O)c2[nH]c(-c3ccc(OCC(=O)Nc4ccc(C(=O)O)cc4)cc3)nc2n(CCC)c1=O`, for which the Ki at Adenosine receptor A2a [4] was 39 nM; on Adenosine receptor A1 [5], 161 nM; on Adenosine receptor A3 [7], > 5000 nM.

Broadly, the Ki is a measure of affinity in units of concentration, obtained from inhibition or displacement. The low end stands for higher affinity, the high end for lower affinity. As usually defined, the inhibition is the change of the read-out against control, counted positive when it falls. Lower therefore signals little suppression.

Source of the values: ChEMBL document CHEMBL1132981 (J Med Chem, 2000).
